Measured values published in ChEMBL document CHEMBL3108726, “Sorbicatechols A and B, antiviral sorbicillinoids from the marine-derived fungus Penicillium chrysogenum PJX-17” (J Nat Prod, 2014).

Test system: Influenza A virus
Test: Antiviral activity against Influenza A virus (A/Puerto Rico/8/34(H1N1)) infected in MDCK cells assessed as inhibition of virus-induced cytopathic effect after 48 hrs by crystal violet staining technique
Format: functional, organism-based
Settings: A/Puerto Rico/8/1934(H1N1)

| Compound | IC50 [µM] |
| --- | --- |
| C/C=C/C=C/C(O)=C1/C(=O)[C@]2(C)C(=O)[C@@](C)(O)[C@H]1C[C@@H]2c1ccc(O)c(OC)c1 | 85 |
| C/C=C/C=C/C(O)=C1/C(=O)[C@]2(C)C(=O)[C@@](C)(O)[C@H]1C[C@H]2c1ccc(O)c(OC)c1 | 113 |
| NC(=O)c1ncn([C@@H]2O[C@H](CO)[C@@H](O)[C@H]2O)n1 [RIBAVIRIN] | 84 |
